# Measured values as given in patent US20130190370A1, “Novel Tetrahydronaphalene Antagonists to the Thromboxane A2 (TP) Receptor” (The Trustees of the University of Pennsylvania, priority 2010, published 2013).
# Like-named read-outs stand apart in the source and are kept apart here.
# Key:
# [1] = Unbound fractions in plasma and brain homogenates by equilibrium dialysis; format: in vitro ADME; settings: for fraction unbound: equilibrium dialysis
# Text: Without wishing to be bound by any particular theory, it is believed that it is possible (although uncommon) for a BBB-permeable compound to have a very low B/P ratio if the fraction of free, unbound drug is much greater in the […]. More specifically, a drug that is freely diffusible across the BBB will at equilibrium have a free drug B/P ratio (B/Pfree)=1, where B/Pfree=B/P×fu(brain))/fu(plasma) (Maurer, et al., 2005, Drug Metab Dispos. 33:175-181; Kalvasset al., 2007, Drug Metab Dispos. 35:660-666) and fti represents unbound drug fractions. […] To ensure that the low B/P ratios obtained with the TP antagonists of Table 1 were truly reflective of poor BBB permeability, the unbound fractions in plasma and brain homogenates were measured using established equilibrium dialysis methods (Maurer, et al., 2005, Drug Metab Dispos. 33:175-181; Kalvasset al., 2007, Drug Metab Dispos. 35:660-666; Friden, et al., 2007, Drug Metab Dispos. 35:1711-1719). […] This is further illustrated by comparing the calculated B/Pfree ratios (Table 1), which are <<1. Because the existing repertoire of TP receptor antagonists share common structural features, including free carboxylate moieties, it is highly unlikely that any of these existing compounds would be sufficiently brain-penetrant to be potential AD therapeutics.
# mouse TP receptor = molecular target: T1, mouse TP receptor (Mus musculus, UniProt P30987); assay: Radioligand binding assay (3H-SQ29,548), mouse TP receptor; settings: read-out: Kd / affinity at the mouse TP receptor
# T1 construct: expressed in transfected cells
# T1 sequence (P30987 1-341): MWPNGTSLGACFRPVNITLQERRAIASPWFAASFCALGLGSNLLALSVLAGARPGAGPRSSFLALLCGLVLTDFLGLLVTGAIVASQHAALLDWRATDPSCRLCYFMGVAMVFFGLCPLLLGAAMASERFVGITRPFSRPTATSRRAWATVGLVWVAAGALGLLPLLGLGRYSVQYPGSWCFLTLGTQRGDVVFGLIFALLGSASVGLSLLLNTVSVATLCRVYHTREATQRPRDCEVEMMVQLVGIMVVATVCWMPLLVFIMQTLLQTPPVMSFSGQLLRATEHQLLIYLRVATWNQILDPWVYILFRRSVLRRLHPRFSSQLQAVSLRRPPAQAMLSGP
# Protocol: QBI-HEK 293A cells expressing human or mouse TxA2 (TP) receptor were grown as described previously and harvested in phosphate-buffered saline with 1 mM EDTA. The cell pellet was homogenized in a glass homogenizer in 20 mM Hepes, 1 mM EGTA, 0.5 mM DTT with protease inhibitor cocktail. The homogenate was initially centrifuged at 1000×g for 10 minutes at 8° C. to remove cell debris. The homogenate was then centrifuged in a Beckman L8-70M ultracentrifuge (Beckman-Coulter, Brea, Calif., USA) at 21,000 rpm for 30 minutes at 4° C., and the pellet was resuspended in 20 mM Hepes, 1 mM EGTA, 100 mM NaCl. Membrane preparations were normalized to protein level as determined with a BCA assay (ThermoFisher, Rockland, Ill.) and stored at −80° C.
# Test antagonists were incubated at 10 different concentrations with 25 μg membrane and 25 nM ^3H-SQ29,548 (PerkinElmer, Waltham, Mass., USA) in 50 mM Tris, 4 mM CaCl2, 0.1% ascorbic acid pH 7.5 for 2 hours at 25° C. in 96-well polystyrene plates. Separation of bound from free radioligand was accomplished by rapid vacuum filtration onto 96-well GF/B filter plates (PerkinElmer, Waltham, Mass., USA). Filters were washed 8 times in 50 mM Tris, pH 6.9 and allowed to dry for 16 hours, Plates were sealed and filters dissolved in 50 μL Betaplate Scintillation fluid (PerkinElmer, Waltham, Mass., USA) and read on a scintillation counter. Data are presented as percent total binding as calculated by a minimum of 3 wells containing membrane and ^3H-SQ29,548 without antagonist.
# Equilibrium dissociation constants (Kd), IC50, and Schild regression analyses was performed with GraphPad Prism software (GraphPad Software Inc., La Jolla, Calif., USA).
# To facilitate the characterization of the new compounds, cell-based TP receptor functional assays were optimized. HEK293 clones have been produced that stably express the human (hTP) or mouse (mTP) TP receptor (a isoform), and treatment of these clones with I-BOP ([1S-[1α,2α(Z),3β(1E,3S*),4α]]-7-[3-[3-hydroxy-4-(4-iodophenoxy)-1-butenyl]-7-oxabicyclo[2.2.1]hept-2-yl]-5-heptenoic acid) results in increased production of inositol triphosphate (IP3) (Knezevic, et al., 1993, Blood 82:A156; Shenker, et al., 1991, J Biol Chem 266:9309-9313; Huang, et al., 2004, Cell Signal 16:521-533) which can be quantified by measuring the breakdown product, inositol monophosphates (IP1), using a commercial time-resolved fluorescence assay. […] A radioligand binding assay was also developed to allow for the determination of binding affinities of compounds at the hTP and mTP receptors.
smiles,measurement,setting,value
Cc1ccc2c(c1CCC(=O)O)CC[C@@H](NS(=O)(=O)c1ccc(Cl)cc1)C2 [Compound S18886],fraction unbound,"[1]; brain homogenate, read-out: fu(brain) (fraction unbound)",0.044
same,plasma/brain unbound fraction ratio,"[1]; plasma and brain homogenate, ratio of unbound fractions plasma/brain, read-out: fu(pl)/fu(br)",0.59
same,fraction unbound,"[1]; plasma, read-out: fu(plasma) (fraction unbound)",0.026
same,Kd,mouse TP receptor,0.36 nM
